# Where two headings read alike, the source gives them in different places. Starred links: 1 amine or outer side, 2 acyl side, 3 side chain; linkers in the order of their positions; H or OH if unused. Positions of bridges follow the written chain, without caps; N, C: chain ends. Residues, ends and D or L forms follow the SMILES beside them. *: point of attachment. C18 diacid = O=C(O)CCCCCCCCCCCCCCCCC(=O)*; γGlu = O=C(O)[C@H](CCC(=O)[*:2])N[*:1]; AEEA = NCCOCCOCC(=O)O
# Assay: PK after i.v. and s.c. administration to Göttingen minipig
# Settings: female, in vivo; for clearance: read-out: CL (ml/hr/kg), Intravenous PK (converted)
# Summary of the method: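 Female Göttingen minipigs (6-12 months, ~22 kg) and domestic LYD pigs (4-5 months, ~80 kg) given CNP compounds i.v. (30-60 or 15-43 nmol/kg) or s.c. neck (55-62 or 20-30 nmol/kg) via catheter/pen. EDTA plasma sampled up to 14 days, CNP and cGMP by LC-MS; non-compartmental PK, F from dose-normalized AUC s.c./i.v.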
# [1] = iv, Göttingen Minipig, i.v., read-out: T½, iv (converted)
# [2] = sc, Göttingen Minipig, s.c. bioavailability, read-out: F (%), Subcutaneous PK
# [3] = sc, Göttingen Minipig, s.c., read-out: T½, sc (converted)
smiles,measurement,setting,value
CC[C@H](C)[C@@H]1NC(=O)[C@H](CCCNC(=N)N)NC(=O)[C@H](CC(=O)O)NC(=O)[C@H](CC(C)C)NC(=O)[C@@H]2CCCN2C(=O)[C@H](CC(C)C)NC(=O)CNC(=O)[C@H](Cc2ccccc2)NC(=O)[C@@H](NC(=O)CNC(=O)[C@H](CCC(N)=O)NC(=O)[C@H](CO)NC(=O)[C@H](CC(C)C)NC(=O)CNC(=O)[C@H](CCCCN)NC(=O)[C@H](CCCCN)NC(=O)[C@H](CCC(N)=O)NC(=O)[C@H](C)NC(=O)CNC(=O)[C@H](CCCCN)NC(=O)[C@H](Cc2ccc(O)cc2)NC(=O)[C@H](CCCCN)NC(=O)[C@H](CCCNC(=N)N)NC(=O)[C@H](C)NC(=O)COCCOCCNC(=O)COCCOCCNC(=O)COCCOCCNC(=O)COCCOCCNC(=O)CC[C@H](NC(=O)CC[C@H](NC(=O)CC[C@H](NC(=O)CC[C@H](NC(=O)CC[C@H](NC(=O)CCCCCCCCCCCCCCCCC(=O)O)C(=O)O)C(=O)O)C(=O)O)C(=O)O)C(=O)O)CSSC[C@@H](C(=O)O)NC(=O)CNC(=O)[C@H](CC(C)C)NC(=O)CNC(=O)[C@H](CO)NC(=O)[C@H](CC(C)C)NC(=O)[C@H](CO)NC(=O)CNC1=O [Compound 9407] ({C18 diacid-γGlu-γGlu-γGlu-γGlu-γGlu-AEEA-AEEA-AEEA-AEEA}-ARKYKGAQKKGLSQGCFGLPLDRIGSLSGLGC-OH; disulfide 16-32),clearance,"iv, Göttingen Minipig, i.v.",1.2 mL/h/kg
same,half-life,[1],82 h
same,bioavailability,[2],86%
same,half-life,[3],92 h
CC[C@H](C)[C@@H]1NC(=O)[C@H](CCCNC(=N)N)NC(=O)[C@H](CC(=O)O)NC(=O)[C@H](CC(C)C)NC(=O)[C@@H]2CCCN2C(=O)[C@H](CC(C)C)NC(=O)CNC(=O)[C@H](Cc2ccccc2)NC(=O)[C@@H](NC(=O)CNC(=O)[C@H](CCC(N)=O)NC(=O)[C@H](CO)NC(=O)CNC(=O)CNC(=O)[C@H](CCCCN)NC(=O)[C@H](CCCCN)NC(=O)[C@H](CCC(N)=O)NC(=O)[C@H](C)NC(=O)CNC(=O)[C@H](CCCCN)NC(=O)[C@H](Cc2ccc(O)cc2)NC(=O)COCCOCCNC(=O)COCCOCCNC(=O)COCCOCCNC(=O)COCCOCCNC(=O)CC[C@H](NC(=O)CC[C@H](NC(=O)CCCCCCCCCCCCCCCCC(=O)O)C(=O)O)C(=O)O)CSSC[C@@H](C(=O)O)NC(=O)CNC(=O)[C@H](CC(C)C)NC(=O)CNC(=O)[C@H](CO)NC(=O)[C@H](CC(C)C)NC(=O)[C@H](CO)NC(=O)CNC1=O [Compound 9435] ({C18 diacid-γGlu-γGlu-AEEA-AEEA-AEEA-AEEA}-YKGAQKKGGSQGCFGLPLDRIGSLSGLGC-OH; disulfide 13-29),clearance,"iv, Göttingen Minipig, i.v.",1.02 mL/h/kg
same,half-life,[1],77 h
same,bioavailability,[2],77%
same,half-life,[3],82 h
CC[C@H](C)[C@@H]1NC(=O)[C@H](CCCNC(=N)N)NC(=O)[C@H](CC(=O)O)NC(=O)[C@H](CC(C)C)NC(=O)[C@@H]2CCCN2C(=O)[C@H](CC(C)C)NC(=O)CNC(=O)[C@H](Cc2ccccc2)NC(=O)[C@@H](NC(=O)CNC(=O)[C@H](CCC(N)=O)NC(=O)[C@H](CO)NC(=O)[C@H](CC(C)C)NC(=O)CNC(=O)[C@H](CCCCN)NC(=O)[C@H](CCCCN)NC(=O)[C@H](CCC(N)=O)NC(=O)[C@H](C)NC(=O)CNC(=O)[C@H](CCCCN)NC(=O)[C@H](Cc2ccc(O)cc2)NC(=O)COCCOCCNC(=O)COCCOCCNC(=O)COCCOCCNC(=O)COCCOCCNC(=O)CC[C@H](NC(=O)CC[C@H](NC(=O)CC[C@H](NC(=O)CCCCCCCCCCCCCCCCC(=O)O)C(=O)O)C(=O)O)C(=O)O)CSSC[C@@H](C(=O)O)NC(=O)CNC(=O)[C@H](CC(C)C)NC(=O)CNC(=O)[C@H](CO)NC(=O)[C@H](CC(C)C)NC(=O)[C@H](CO)NC(=O)CNC1=O [Compound 9480] ({C18 diacid-γGlu-γGlu-γGlu-AEEA-AEEA-AEEA-AEEA}-YKGAQKKGLSQGCFGLPLDRIGSLSGLGC-OH; disulfide 13-29),clearance,"iv, Göttingen Minipig, i.v.",1.13 mL/h/kg
same,half-life,[1],74 h
same,bioavailability,[2],87%
same,half-life,[3],67 h
CC[C@H](C)[C@@H]1NC(=O)[C@H](CCCNC(=N)N)NC(=O)[C@H](CC(=O)O)NC(=O)[C@H](CC(C)C)NC(=O)[C@@H]2CCCN2C(=O)[C@H](CC(C)C)NC(=O)CNC(=O)[C@H](Cc2ccccc2)NC(=O)[C@@H](NC(=O)CNC(=O)[C@H](CO)NC(=O)[C@H](CO)NC(=O)[C@H](CC(C)C)NC(=O)CNC(=O)[C@H](CCCCN)NC(=O)[C@H](CCCCN)NC(=O)[C@H](CCC(N)=O)NC(=O)[C@H](C)NC(=O)CNC(=O)[C@H](CCCCN)NC(=O)[C@H](Cc2ccc(O)cc2)NC(=O)[C@H](CCCCN)NC(=O)[C@H](CCCNC(=N)N)NC(=O)[C@H](C)NC(=O)[C@H](CCC(N)=O)NC(=O)[C@@H]2CCCN2C(=O)[C@H](Cc2c[nH]cn2)NC(=O)[C@H](CCC(=O)O)NC(=O)[C@H](CCC(N)=O)NC(=O)CC[C@H](NC(=O)CC[C@H](NC(=O)CC[C@H](NC(=O)CC[C@H](NC(=O)CC[C@H](NC(=O)CCCCCCCCCCCCCCCCC(=O)O)C(=O)O)C(=O)O)C(=O)O)C(=O)O)C(=O)O)CSSC[C@@H](C(=O)O)NC(=O)CNC(=O)[C@H](CC(C)C)NC(=O)CNC(=O)[C@H](CO)NC(=O)[C@H](CC(C)C)NC(=O)[C@H](CO)NC(=O)CNC1=O [Compound 9482] ({C18 diacid-γGlu-γGlu-γGlu-γGlu-γGlu}-QEHPQARKYKGAQKKGLSSGCFGLPLDRIGSLSGLGC-OH; disulfide 21-37),clearance,"iv, Göttingen Minipig, i.v.",1.07 mL/h/kg
same,half-life,[1],89 h
same,bioavailability,[2],89%
same,half-life,[3],84 h
CC[C@H](C)[C@@H]1NC(=O)[C@H](CCCNC(=N)N)NC(=O)[C@H](CCC(=O)O)NC(=O)[C@H](CC(C)C)NC(=O)[C@H](CCCCN)NC(=O)[C@H](CC(C)C)NC(=O)CNC(=O)[C@H](Cc2ccccc2)NC(=O)[C@@H](NC(=O)CNC(=O)[C@H](CCCCN)NC(=O)[C@H](CO)NC(=O)[C@H](CC(C)C)NC(=O)CNC(=O)[C@H](CCCCN)NC(=O)[C@H](CCCCN)NC(=O)[C@H](CCC(N)=O)NC(=O)[C@H](C)NC(=O)CNC(=O)[C@H](CCCCN)NC(=O)[C@H](Cc2ccc(O)cc2)NC(=O)[C@H](CCCCN)NC(=O)[C@H](CCCNC(=N)N)NC(=O)[C@H](C)NC(=O)COCCOCCNC(=O)COCCOCCNC(=O)CC[C@H](NC(=O)CCCCCCCCCCCCCCCCC(=O)O)C(=O)O)CSSC[C@@H](C(=O)O)NC(=O)CNC(=O)[C@H](CC(C)C)NC(=O)CNC(=O)[C@H](CO)NC(=O)[C@H](CC(C)C)NC(=O)[C@H](CO)NC(=O)CNC1=O [compound 0776] ({C18 diacid-γGlu-AEEA-AEEA}-ARKYKGAQKKGLSKGCFGLKLERIGSLSGLGC-OH; disulfide 16-32),bioavailability,"Göttingen minipig and domestic LYD pig, minipig, sc",7 to 13%

# Reference: patent publication US20240209028A1, “CNP COMPOUNDS” (priority 2022, published 2024)
